Read-outs that look alike come from different tables or passages of the source. Marks after values point to notes of the source that are not given here.
Legend:
HepG2 cells = format: cell-based; conditions: human, 24 h
Method: A human hepatoma cell line (HepG2), originally received from the University of Lisbon as a kind gift, was cultured as described. […] When confluent, the cell monolayer was trypsinized, washed with culture medium supplemented with 10% FCS, counted, diluted (5 × 10^3 cells/well), placed in flat-bottom 96-well plates (Corning, Santa Clara, CA, USA), and incubated for 18 h at 37°C to allow cell adhesion. […] After 3 h, the supernatant was discarded, 100 μL of dimethyl sulphoxide (DMSO) was added per well, and the optical density was measured (SpectraMax340PC384, Molecular Devices) at 570 nm (test) and 630 nm (background). Cell viability was expressed as the percentage of the absorbance compared to the absorbance of the untreated cells and subtracted from the appropriate background measurement.

[1] = tested on: CQ-R P. falciparum parasites (W2 clone); test: anti-HRPII test, P. falciparum CQ-R W2 clone in culture; format: cell-based, Plasmodium falciparum; conditions: for SI (MLD50/IC50) W2 (CQ-R): MLD50 HepG2 / IC50 W2; for IC50: Plasmodium falciparum
Method: (§1) Before tests with the molecules were performed, ring stage parasites were synchronized using sorbitol and the parasitaemia and haematocrit were adjusted; 180 μL/well was added to 96-well microtiter plates (Corning, Santa Clara, CA, USA) containing the diluted compounds tested in triplicate. Drug activity was evaluated in relation to control cultures with no drugs and was measured using the anti-histidine-rich protein II (HRPII) test as described. CQ was used in each test as a control, and two to four experiments were performed for each parasite strain.
(§2) The cultures were added to plates containing the diluted drugs, followed by incubation for 24 h under standard culture conditions. The contents of six wells with no drugs were harvested in each test plate, pooled in microtubes, and frozen for later use to measure the background parasite growth as described. […] Phosphate-buffered saline (PBS) containing 0.05% Tween and 4% bovine serum albumin was used for plate blocking (3 h at room temperature) to avoid nonspecific antibody binding. After 1 h at room temperature, the plate was washed, and 100 μL/well of a secondary antibody solution (MPFG-55P ICLLAB®, USA) was added, followed by incubation with 3,3′,5,5′-tetramethylbenzidine (TMB) chromogen (KPL, Gaithersburg, MD, USA) in the dark. […] The anti-P. falciparum drug activity was evaluated by comparing the parasite growth in the drug-free control cultures, considered 100% growth, with that in the drug test cultures.

β-haematin formation = test: Inhibition of β-haematin formation assay (lipid catalyst); format: biochemical
Method: The assay was performed using a lipid as a catalyst to promote crystallization. Briefly, drug stock solutions were prepared in DMSO and were used at a final concentration of up to 30 mM. A haem stock (10 mM) was made in DMSO and was diluted to 50 μM with 100 mM sodium acetate (pH 4.8). […] The plates were incubated at 37°C for 2 h to allow crystallization, followed by the addition of 100 μl of 200 mM sodium bicarbonate (pH 9.1) to solubilize any remaining monomeric haem. After incubation for 30 min at room temperature, the amount of solubilized monomeric haem was determined by measuring the absorbance at 405 nm. Finally, 20 μl of 1 M sodium hydroxide was added to the plates to dissolve any crystals that had been formed, and the absorbance was read at 405 nm to determine the total amount of haem present in each well. The inhibition of haem crystallization was determined as a function of the amount of monomeric haem that was not crystallized divided by the total amount of haem present in the assay mixture. The results are expressed as IC50 values based on the percentage inhibition of β-haematin formation by the CQAn.

[2] = tested on: P. berghei NK65 blood parasites (CQ-sensitive); test: Suppressive test in mice, CQ-sensitive P. berghei; format: in vivo, P. berghei in Swiss mice; conditions: for Percentage reduction of parasitaemia, CQ-Sensitive, Day 5 / Percentage reduction of parasitaemia, CQ-Sensitive, Day 7: 25 mg/kg oral, four consecutive days, vs non-treated mice; for Percentage reduction of parasitaemia, CQ-Sensitive, Day 5: day 5 after inoculation; for Percentage reduction of parasitaemia, CQ-Sensitive, Day 7: day 7 after inoculation; for Inhibition of P. berghei parasitaemia, day 5 / Inhibition of P. berghei parasitaemia, day 7: 50 mg/kg dose; for Inhibition of P. berghei parasitaemia, day 5: day 5 after infection; for Inhibition of P. berghei parasitaemia, day 7: day 7 after infection; for Mice surviving the infection at least 30 days after the end of treatment: P. berghei-infected mice, groups of five
Method: (§3) The protocol for animal use was approved by the Ethics Committee for Animal Use (CEUA LW-23/13) of the Oswaldo Cruz Foundation (Fiocruz). Only Swiss adult female mice (20 ± 2 g weight) were used; they were raised at the animal facilities at FIOCRUZ-Minas.
The suppressive test was performed as described using the P. berghei NK65 blood parasites, with some modifications. Briefly, the blood parasites were maintained through weekly blood passages in mice. For the experiments, groups of 20–30 mice were inoculated with 1 × 10^5 infected erythrocytes. Approximately three hours later, they were randomly distributed into groups of five to six mice per cage, which were treated daily by gavage for four consecutive days. All the compounds were freshly diluted in 3% DMSO (Sigma-Aldrich) in RPMI medium and were administered orally at doses of 25 mg/kg or 50 mg/kg. The control mice received the drug vehicle. On days 5 and 7 after parasite inoculation, blood was taken from the tail of each mouse and used to prepare thin smears, which were methanol-fixed, Giemsa-stained and examined microscopically to determine parasitaemia.

[3] = tested on: P. berghei NK65 CQ-resistant strain; format: in vivo, P. berghei in Swiss mice; conditions: for Activity class against CQ-resistant P. berghei in mice: 25 mg/kg
Method: as §3
A P. berghei NK65 CQ-resistant strain maintained at -70°C, selected by increasing doses of CQ, maintained in mice under constant drug pressure (CQ 150 mg/kg) and stored at -70°C was also defrosted and used to inoculate mice. […] The mice were inoculated with 10^7 parasitized RBCs using blood parasites from a donor with parasites resistant to 150 mg/kg of CQ. Groups of five mice each were separated 24 h after the parasite inoculation, then treated orally with the test CQAn at doses of 25 or 50 mg/kg for three consecutive days. Two control groups were used in each experiment; one received CQ at 150 mg/kg and the other was infected but treated with vehicle only (no drugs). The inhibition of parasitaemia was evaluated as described for the mice inoculated with the CQ-sensitive parasites.

[4] = tested on: CQ-S P. falciparum parasites (3D7 strain); test: anti-HRPII test, P. falciparum CQ-S 3D7 strain in culture; format: cell-based, Plasmodium falciparum; conditions: for SI (MLD50/IC50) 3D7 (CQ-S): MLD50 HepG2 / IC50 3D7; for IC50: Plasmodium falciparum; for Activity class against CQ-S parasites (3D7): in vitro, class by IC50
Method: as §1, §2

[5] = tested on: P. berghei NK65 blood parasites (CQ-sensitive); design: method as in de Souza et al. [19]; conditions: 25 mg/kg, adapted from earlier paper, ref de Souza et al. [19], cited from earlier work
[6] = W2, anti-HRPII method, average ± SD of two to four experiments, read-out: Anti-P. falciparum activity (IC50) W2 (CQ-R)
[7] = experiment 1, read-out: Inhibitory concentration of β-haematin formation (IC50), Exp 1
[8] = experiment 2, read-out: Inhibitory concentration of β-haematin formation (IC50), Exp 2
[9] = experiment 3, read-out: Inhibitory concentration of β-haematin formation (IC50), Exp 3
[10] = 50 mg/kg oral, three consecutive days
[11] = 3D7, anti-HRPII method, average ± SD of two to four experiments, read-out: Anti-P. falciparum activity (IC50) 3D7 (CQ-S)
[12] = 25 mg/kg (footnote b; head says 50 mg/kg)

Row | Compound | Cytotoxicity MLD50 HepG2 cells (HepG2 cells) | SI (MLD50/IC50) W2 (CQ-R) [1] | IC50 [1, 6] | IC50 (β-haematin formation; [7]) | IC50 (β-haematin formation; [8]) | IC50 (β-haematin formation; [9]) | Percentage reduction of parasitaemia, CQ-Sensitive, Day 5 [2] | Percentage reduction of parasitaemia, CQ-Sensitive, Day 7 [2] | Inhibition of P. berghei parasitaemia, day 5 [2] | Inhibition of P. berghei parasitaemia, day 7 [2] | Percentage reduction of parasitaemia, CQ-Resistant, Day 5 [3, 10] | Percentage reduction of parasitaemia, CQ-Resistant, Day 7 [3, 10] | SI (MLD50/IC50) 3D7 (CQ-S) [4] | IC50 [4, 11] | Activity class against CQ-S parasites (3D7) [4] | further results
1 | C#CCN(CC#C)CCNc1ccnc2cc(Cl)ccc12 [CQAn37] | 1699.24 ± 10.07 µM | 24275 | 0.07 ± 0.03 µM | 2700 µM | 10200 µM | 7500 µM | 100% | 93% | 100% | 100% | 47% | 33% | 2981 | 0.57 ± 0.24 µM | active | Mice surviving the infection at least 30 days after the end of treatment [2]: Two of the five
2 | C#CCNCCCNc1ccnc2cc(Cl)ccc12 [CQAn28] | 1508.56 ± 344.50 µM | 2125 | 0.71 ± 0.03 µM | – | – | – | – | – | – | – | – | – | 101 | 14.9 ± 3.58 µM | inactive | Percentage reduction of parasitaemia, CQ-Sensitive, Day 5 [5]: 94^a %; Percentage reduction of parasitaemia, CQ-Sensitive, Day 7 [5]: 24^a %; Activity class against CQ-resistant P. berghei in mice [3]: inactive; Percentage reduction of parasitaemia, CQ-Resistant, Day 5 [3, 12]: 0^b %
3 | C#CCNCCNc1ccnc2cc(Cl)ccc12 [CQAn34] | 943.29 ± 73.15 µM | 4101 | 0.23 ± 0.15 µM | – | – | – | 99% | 81% | – | – | – | – | 3144 | 0.3 ± 0.01 µM | active | Activity class against CQ-resistant P. berghei in mice [3]: inactive; Percentage reduction of parasitaemia, CQ-Resistant, Day 5 [3, 12]: 0^b %
4 | C#CCN(CC#C)CCCNc1ccnc2cc(Cl)ccc12 [CQAn39] | ≥3207.08 µM | 5011 | 0.64 ± 0.29 µM | – | – | – | 95% | 92% | – | – | 62% | 30% | 1342 | 2.39 ± 0.11 µM | partially active (between 1–5 μM as partially active) | –
5 | C#CCNCCCCNc1ccnc2cc(Cl)ccc12 [CQAn33] | 152.89 ± 12.86 µM | 7645 | 0.02 ± 0.001 µM | 4700 µM | 3000 µM | 5600 µM | – | – | 100% | 100% | 53% | 52% | 131 | 1.17 ± 0.1 µM | partially active (between 1–5 μM as partially active) | IC50 compared with that of CQ ([1]; relative to CQ, P. falciparum in vitro): more than 10 fold; β-haematin formation IC50 compared with that of CQ (β-haematin formation; relative to CQ): similar; Percentage reduction of parasitaemia, CQ-Sensitive, Day 5 [5]: 73^a %; Percentage reduction of parasitaemia, CQ-Sensitive, Day 7 [5]: 57^a %
6 | C#CCN(CC#C)CCCCNc1ccnc2cc(Cl)ccc12 [CQAn45] | 1015.84 ± 42.97 µM | – | 0.77 ± 0.21 µM | – | – | – | 88% | 50% | – | – | 63% | 51% | 868 | 1.17 µM | partially active (between 1–5 μM as partially active) | –
7 | CCN(CC)CCCC(C)Nc1ccnc2cc(Cl)ccc12 (stereo not shown) [Chloroquine, reference compound] | – | – | – | 600 µM | 2000 µM | 5000 µM | 100% | 97% | 100% | 100% | – | – | – | – | – | IC50 ([1]; W2, read-out: Anti-P. falciparum activity (IC50) W2 (CQ-R)): 0.38 ± 0.03 µM; Mice surviving the infection at least 30 days after the end of treatment [2]: all; IC50 ([4]; 3D7, read-out: Anti-P. falciparum activity (IC50) 3D7 (CQ-S)): 0.081 ± 0.019 µM

— PMC4265395 (Malaria Journal, 2014)
